Reference: patent US20170226503A1, “Methods for Sequential Screening with Co-Culture Based Detection of Metagenomic Elements Conferring Heterologous Metabolite Secretion” (MetaMixis Biologics, Inc., priority 2014, published 2017)

Test system: MIE p10c20
Assay: Validation of MIE p10c20 from retrofitted metagenomic library (fluorescence)
Format: cell-based
Conditions: 1 mM
Description: A metagenomic DNA library was “retroffited” as described herein and shown in FIG. 15 to identify a metabolite induced element (MIE). In FIG. 16 fluoresence plots are shown for a retroffited metagenomic library assayed for fluorescence emitted by the fluorescent marker. […] Induction was by a pool of pCoumaric acid, Vanillic acid and Vanillin. The circled data point that represents a fosmid clone harboring a candidate MIE (p10c20) which was selected for further investigation.

SMILES: O=C(O)/C=C/c1ccc(O)cc1 [pCoumaric acid]
- responsiveness of MIE p10c20: most responsive
